These results are taken from patent publication US20070129344A1, “Bicyclic 6-alkylidene-penem beta-lactamase inhibitors and beta-lactam antibiotic combination: a broad spectrum antibiotic” (priority 2005, published 2007).

Experiment [1] has as its system P. aeruginosa PT 9025 PTZ-R. Kind of experiment: MIC microbroth dilution. The format is cell-based. The method, then: (§1) The in vitro activities of the antibiotics were determined by the microbroth dilution method as recommended by the National Committee for Clinical Laboratory Standards (NCCLS). (NCCLS. 2000. Methods for Dilution Antimicrobial Susceptibility Tests for Bacteria That Grow Aerobically; Approved Standards: M7-A5, vol. 19. National Committee for Clinical Laboratory Standards, Villanova, Pa.). Mueller-Hinton II broth (MHBII)(BBL Cockeysville, Md.), was used for the testing procedure. […]. The plates were incubated for 18-22 hours at 35° C. in ambient air.

Experiment [2] has as its system K. pneumoniae GC 7636 TEM-1 KPC-2 SHV-12. The experiment can be described thus: MIC microbroth dilution; β-lactamase class A, A (Cb'ase), A (ESBL). The format is cell-based. The method, then: as §1
For orientation: Dilution methods test growth across graded concentrations, often in twofold steps.

For experiment [3], the system named is A. baumannii GC 7685 TEM-1. The experiment can be described thus: MIC microbroth dilution; β-lactamase class A. It is filed as cell-based. Here is the method:
as §1

For experiment [4], the system named is E. coli ATCC 35218 TEM-1. Kind of experiment: MIC microbroth dilution; β-lactamase class A. The format is cell-based. Here is the method: as §1
The test system of experiment [5] is E. coli GC 2883 (OXA-10/PSE-2). The experiment can be described thus: MIC microbroth dilution; β-lactamase class D. The format is cell-based. Here is the method:
as §1

Experiment [6] deals with E. coli GC 2253 (IRT-2). The experiment can be described thus: MIC microbroth dilution; β-lactamase class A (IRT). It is filed as cell-based. The method, then:
as §1

The subject of experiment [7] is K. pneumoniae GC 7645 TEM-30 TEM-1 KPC-2 SHV-12. Kind of experiment: MIC microbroth dilution; β-lactamase class A, A (Cb'ase), A (ESBL), A(IRT). It is filed as cell-based. Here is the method:
as §1

Experiment [8] relates to E. coli GC 2805 (CcrA). The experiment can be described thus: MIC microbroth dilution; β-lactamase class B. It is filed as cell-based. The method, then: as §1
For experiment [9], the system named is S. marcescens GC 4132 Stably derepressed AmpC. The experiment can be described thus: MIC microbroth dilution; β-lactamase class C. The format is cell-based. Summed up:
(§2)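 Following NCCLS standard M7-A5, antibiotics were tested by microbroth dilution in MHBII; plates sat 18-22 hours at 35° C. under ambient atmosphere.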

Experiment [10] deals with P. aeruginosa GC 4161 Stably derepressed AmpC. The experiment can be described thus: MIC microbroth dilution; β-lactamase class C. The format is cell-based. Summed up: as §2
For experiment [11], the system named is C. freundii PT 1499 Stably derepressed AmpC. Kind of experiment: MIC microbroth dilution; β-lactamase class C. It is filed as cell-based. An outline of the steps: (§3)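 MIC endpoints were read after 18-22 hours of incubation (35° C., ambient air) in Mueller-Hinton II broth microdilution plates run to NCCLS M7-A5.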
Experiment [12] concerns C. freundii GC 4187 Stably derepressed AmpC. The experiment can be described thus: MIC microbroth dilution; β-lactamase class C. The format is cell-based. Summed up: as §2
The test system of experiment [13] is K. oxytoca GC 7627 TEM-1 K1 KPC-2. Kind of experiment: MIC microbroth dilution; β-lactamase class A, A (Cb'ase). It is filed as cell-based. Here is the method:
as §1

For experiment [14], the system named is E. coli LSU 80-8 GC 6265 TEM-1. Kind of experiment: MIC microbroth dilution; β-lactamase class A. It is filed as cell-based. To be noted: E. coli GC 6265; Cefepime + 4 ug/ml Compound 1. The method, then:
as §1

In experiment [15] the test system is E. cloacae PT 197 Stably derepressed AmpC. It is filed as cell-based. The following applies: Cefepime + 4 ug/ml Compound 1. The method, then: (§4) The in vitro activities of the antibiotics were determined by the microbroth dilution method as recommended by the National Committee for Clinical Laboratory Standards (NCCLS). (NCCLS. 2000. Methods for Dilution Antimicrobial Susceptibility Tests for Bacteria That Grow Aerobically; Approved Standards: M7-A5, vol. 19. National Committee for Clinical Laboratory Standards, Villanova, Pa.). Mueller-Hinton II broth (MHBII)(BBL Cockeysville, Md.), was used for the testing procedure. […] The plates were incubated for 18-22 hours at 35° C. in ambient air.

For experiment [16], the system named is E. cloacae GC 7055 TEM-1, SHV-12 Amp C inducable. The format is cell-based. The following applies: Cefepime + 4 ug/ml Compound 1. Here is the method:
as §4

Experiment [17] relates to E. cloacae GC 1713 AmpC-constitutive. It is filed as cell-based. To be noted: Cefepime + 4 ug/ml Compound 1. Here is the method:
as §4

The target of experiment [18] is class A β-lactamase Imi-1 (Enterobacter cloacae, UniProt Q46991). Kind of experiment: β-Lactamase inhibition IC50 (nitrocefin, spectrophotometric). The format is biochemical. Here is the method:
(§5) β-Lactamase inhibitory activity of the penem inhibitors was determined spectrophotometrically as described by Bush et al., [Bush, K., Macalintal, C., Rasmussen, B. A., Lee, V. and Yang, Y. Antimicrobial Agents and Chemotherapy 1993, 37, 851]. Homogeneously purified class A β-lactamases TEM-1 from E. coli and Imi-1 from Enterobacter cloacae, class B enzyme CcrA from Bacteroides fragilis and class C enzyme AmpC from Enterobacter cloacae were employed in the assay. The enzyme concentrations for TEM-1, Imi-1, CcrA and AmpC were 4.3, 7.1, 1.2 and 2.1 nM, respectively. A wide range of inhibitor concentrations were prepared in 50 mM PO4, pH 7.0 to include the possible IC50 values. The substrate used to initiate the enzyme reaction was nitrocefin at 50 μg/ml in the same buffer as the inhibitor. Initially the enzyme and inhibitor (20 μl each) were preincubated for 10 minutes at 25° C. prior to the addition of 160 μl volume of nitrocefin. Initial rates of hydrolysis were monitored for 5 minutes at 495 nm using a Molecular Devices Spectra Max 250 with kinetic protocol of SoftMax Program. Readings from the Spectra Max 250 were exported and transferred to Microsoft Excel. The percent of inhibition of each inhibitor concentration was calculated based on the control enzyme activity. The inhibitor concentration that caused a 50% reduction in the enzymatic activity (IC50) was determined graphically.

Experiment [19] deals with class C enzyme AmpC (Enterobacter cloacae, UniProt P05364). Described as above. The format is biochemical. Here is the method: as §5
For experiment [20], the target named is class B enzyme CcrA (Bacteroides fragilis, UniProt P25910). Described as above. To be noted: enzyme 1.2 nM, 10 min preincubation at 25° C., read-out: IC50 Class B Ccr. It is filed as biochemical. The method, then: as §5
In experiment [21] the test system is E. coli GC 2021 (TEM-10 + pl 6.3). The experiment can be described thus: MIC microbroth dilution; β-lactamase class A (ESBL). It is filed as cell-based. The following applies: Cefepime + 4 ug/ml Compound 1. An outline of the steps:
as §3

The mark [22] stands for this setting: Cefepime alone, control of Compound 2 test.
[23] abbreviates: Citrobacter freundii, Cefepime alone, control of Compound 1 test.

Converted amounts (≈) assume the structure as drawn. Counter-ions that a name gives are not always drawn. Like-named read-outs stand apart in the source and are kept apart here.

class B enzyme CcrA, sequence (P25910 19-249): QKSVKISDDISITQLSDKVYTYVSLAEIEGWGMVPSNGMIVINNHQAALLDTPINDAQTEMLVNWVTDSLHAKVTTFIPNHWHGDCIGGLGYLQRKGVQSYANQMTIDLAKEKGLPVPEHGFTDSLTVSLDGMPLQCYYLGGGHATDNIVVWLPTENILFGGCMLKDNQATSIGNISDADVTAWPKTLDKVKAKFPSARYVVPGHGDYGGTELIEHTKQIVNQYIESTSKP
class C enzyme AmpC, sequence (P05364 21-381): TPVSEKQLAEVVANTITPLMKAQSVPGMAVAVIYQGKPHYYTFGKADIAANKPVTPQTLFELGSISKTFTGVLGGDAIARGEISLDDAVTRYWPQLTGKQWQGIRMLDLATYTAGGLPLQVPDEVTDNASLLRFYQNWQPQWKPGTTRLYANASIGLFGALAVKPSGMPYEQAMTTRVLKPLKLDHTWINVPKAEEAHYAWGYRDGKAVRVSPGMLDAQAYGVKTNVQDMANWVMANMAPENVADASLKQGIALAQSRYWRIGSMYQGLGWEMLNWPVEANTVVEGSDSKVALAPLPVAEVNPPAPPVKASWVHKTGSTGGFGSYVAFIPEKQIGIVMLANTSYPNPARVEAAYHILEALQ
class A β-lactamase Imi-1, sequence (Q46991 entry or part of it): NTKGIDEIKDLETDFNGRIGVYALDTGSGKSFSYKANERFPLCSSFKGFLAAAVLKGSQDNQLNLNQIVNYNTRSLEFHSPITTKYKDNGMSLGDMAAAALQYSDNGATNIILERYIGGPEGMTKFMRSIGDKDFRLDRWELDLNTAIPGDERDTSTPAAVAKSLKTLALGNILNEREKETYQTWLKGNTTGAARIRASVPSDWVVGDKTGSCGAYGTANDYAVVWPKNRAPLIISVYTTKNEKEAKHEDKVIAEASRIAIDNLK

As a reminder, the MIC is the least concentration at which growth counts as inhibited. In the case of `CO/N=C(\C(=O)N[C@@H]1C(=O)N2C(C(=O)[O-])=C(C[N+]3(C)CCCC3)CS[C@H]12)c1csc(N)n1` [Cefepime, reference compound], the MIC in experiment [1] (P. aeruginosa PT 9025, Cefepime alone, control of Compound 2 test) was >16 mg/L; in experiment [1] (Pseudomonas aeruginosa, PT9025PTZR), > 16 mg/L; in experiment [2] (K. pneumoniae GC 7636, Cefepime alone, control of Compound 2 test), >16 mg/L; in experiment [2] (Klebsiella pneumoniae), > 16 mg/L; in experiment [3] (A. baumannii GC 7685, Cefepime alone, control of Compound 2 test) it was >16 mg/L; in [3] (Acinetobacter baumannii, GC7685TEM1), > 16 mg/L. Further, the MIC in [4] (E. coli ATCC 35218, Cefepime alone, control of Compound 2 test) was 0.03 mg/L (≈ 0.0624 µM); in experiment [4] (Escherichia coli, ATCC35218), 0.03 mg/L (≈ 0.0624 µM); in experiment [5] (setting [22]), 0.06 mg/L (≈ 0.125 µM); in experiment [6] (Escherichia coli, Cefepime alone, control of Compound 1 test) it was 0.03 mg/L (≈ 0.0624 µM); in experiment [7] (K. pneumoniae GC 7645, Cefepime alone, control of Compound 2 test), >16 mg/L; in experiment [7] (Klebsiella pneumoniae), > 16 mg/L. Also, the MIC in experiment [8] (E. coli GC 2805, Cefepime alone, control of Compound 2 test) is >16 mg/L; in [8] (Escherichia coli) it was > 16 mg/L; in experiment [9] (setting [22]), 0.50 mg/L (≈ 1.04 µM); in experiment [10] (P. aeruginosa GC 4161, Cefepime alone, control of Compound 2 test) it was >16 mg/L; in [10] (Pseudomonas aeruginosa), > 16 mg/L; in experiment [11] (setting [23]), 4 mg/L (≈ 8.32 µM). For the same molecule, the MIC was 2 mg/L (≈ 4.16 µM) in [11] (Citrobacter freundii, Cefepime alone, control of Compound 2 test); 2 mg/L (≈ 4.16 µM) in experiment [12] (setting [23]); >16 mg/L in experiment [13] (K. oxytoca GC 7627, Cefepime alone, control of Compound 2 test); > 16 mg/L in [13] (Klebsiella oxytoca).

One may read the IC50 as the concentration that gives 50% inhibition. `O=C([O-])C1=CS[C@@H]2/C(=C\c3cn4c(n3)CCC4)C(=O)N12.[Na+]` [Compound 1, (5R), (6Z)-6-(6,7-Dihydro-5H-pyrrolo[1,2-a]imidazol-2-ylmethylene)-7-oxo-4-thia-1-aza-bicyclo[3.2.0]hept-2-ene-2-carboxylic Acid, Sodium Salt]: the MIC in [1] (P. aeruginosa PT 9025, Cefepime + 4 ug/ml Compound 1) amounted to 16 mg/L; in [2] (K. pneumoniae GC 7636, Cefepime + 4 ug/ml Compound 1) it was 16 mg/L; in experiment [3] (A. baumannii GC 7685, Cefepime + 4 ug/ml Compound 1), 16 mg/L; in [14], 0.03 mg/L; in experiment [4] (E. coli ATCC 35218, Cefepime + 4 ug/ml Compound 1) it was 0.03 mg/L; in [5] (Cefepime + 4 ug/ml Compound 1), 0.06 mg/L. Moreover, the MIC in [6] (Cefepime + 4 ug/ml Compound 1) is 0.03 mg/L; in experiment [15], 0.50 mg/L; in experiment [16] it was 0.06 mg/L; in experiment [17], 0.12 mg/L; in experiment [7] (K. pneumoniae GC 7645, Cefepime + 4 ug/ml Compound 1), >16 mg/L; in experiment [21], 0.12 mg/L. Further, the MIC in experiment [8] (E. coli GC 2805, Cefepime + 4 ug/ml Compound 1) was >16 mg/L; in [9] (Cefepime + 4 ug/ml Compound 1), 0.12 mg/L; in [10] (P. aeruginosa GC 4161, Cefepime + 4 ug/ml Compound 1), 16 mg/L; in experiment [11] (Cefepime + 4 ug/ml Compound 1) it was 0.03 mg/L; in experiment [12] (Cefepime + 4 ug/ml Compound 1) it was 0.12 mg/L; in [13] (K. oxytoca GC 7627, Cefepime + 4 ug/ml Compound 1) it was 2 mg/L. The IC50 in experiment [18] (enzyme 7.1 nM, 10 min preincubation at 25° C., nitrocefin, read-out: IC50 Class A Imi) worked out at 0.0078 µM; in experiment [19] (enzyme 2.1 nM, 10 min preincubation at 25° C., nitrocefin, read-out: IC50 Class C AmpC) it was 0.0048 µM; in experiment [20] it was 0.066 µM.

For the molecule `O=C(O)C1=CS[C@@H]2/C(=C\c3cn4c(n3)COCC4)C(=O)N12` [Compound 2, (5R), (6Z)-6-(5,6-Dihydro-8H-imidazo[2.1-c][1,4]oxazin-2-ylmethylene)-7-oxo-4-thia-1-azabicyclo[3.2.0]hept-2-ene-2-carboxylic Acid, Sodium Salt], the IC50 in experiment [18] amounted to 0.02 µM; in experiment [19] it was 0.0022 µM; in experiment [20], 0.23 µM.
